Assay results taken from US20240391936A1, “TETRAHYDROTHIENO PYRIDINE DERIVATIVES AS DDRS INHIBITORS” (CHIESI FARMACEUTICI S.P.A., priority 2021, published 2024).
pIC50, pKi: −log10 of the molar value. Read-outs that look alike come from different tables or passages of the source.

What was measured:
[1] = target: T1, DDR1 (Homo sapiens, UniProt Q08345); assay: DDR1 binding assay (LanthaScreen Europium Kinase Binding assay); parameters: purchased Carna Biosciences
Method: (§1) DDR1 and DDR2 binding assays were performed using Life Technologies LanthaScreen™ Europium Kinase Binding assay. The compounds were incubated with 5 nM DDR1 (Carna Biosciences) or 5 nM DDR2 (Life Technologies) for 1 hour at room temperature in white 384-well OptiPlate (PerkinElmer), containing 20 nM or 10 nM Kinase Tracer 178 respectively and 2 nM Europium labelled anti-GST antibody (Life Technologies) in assay buffer (50 mM HEPES pH 7.5, 10 mM MgCl2, 1 mM EGTA and 0.01% BRIJ35).
(§2) The ratio of fluorescence emission 665 nm/615 nm after excitation at 340 nm was obtained using the Tecan Spark 20M plate reader. IC50 values were determined in GraphPad Prism 7.0 software, using 4 parameter model: log(inhibitor) vs. response. IC50 values were converted in Ki using the Cheng-Prusoff equation

[2] = target: T2, DDR2 (Homo sapiens, UniProt Q16832); assay: DDR2 binding assay (LanthaScreen Europium Kinase Binding assay); parameters: purchased Life Technologies
T2 sequence (Q16832 22-855): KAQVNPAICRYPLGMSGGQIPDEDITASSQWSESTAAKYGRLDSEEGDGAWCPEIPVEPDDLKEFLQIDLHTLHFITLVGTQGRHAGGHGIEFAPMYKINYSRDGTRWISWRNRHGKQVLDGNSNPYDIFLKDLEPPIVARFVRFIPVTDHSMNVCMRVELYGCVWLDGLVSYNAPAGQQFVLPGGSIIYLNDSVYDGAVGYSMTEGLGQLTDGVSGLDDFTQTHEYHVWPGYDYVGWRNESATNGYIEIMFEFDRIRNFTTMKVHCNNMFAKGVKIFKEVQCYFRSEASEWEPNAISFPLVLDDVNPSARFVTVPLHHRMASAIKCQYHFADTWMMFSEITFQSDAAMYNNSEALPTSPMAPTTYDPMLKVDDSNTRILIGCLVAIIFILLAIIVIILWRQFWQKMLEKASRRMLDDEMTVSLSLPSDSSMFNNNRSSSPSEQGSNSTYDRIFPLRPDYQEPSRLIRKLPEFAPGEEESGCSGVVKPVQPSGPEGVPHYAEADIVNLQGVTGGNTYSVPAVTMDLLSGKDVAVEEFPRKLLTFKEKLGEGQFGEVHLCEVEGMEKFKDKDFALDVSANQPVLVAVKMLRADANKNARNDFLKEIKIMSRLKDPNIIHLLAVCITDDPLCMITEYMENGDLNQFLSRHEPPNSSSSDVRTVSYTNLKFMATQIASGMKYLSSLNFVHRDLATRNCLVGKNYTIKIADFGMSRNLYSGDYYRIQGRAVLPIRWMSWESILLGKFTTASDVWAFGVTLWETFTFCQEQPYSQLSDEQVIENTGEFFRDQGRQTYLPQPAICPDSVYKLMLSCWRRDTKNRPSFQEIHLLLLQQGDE
Method: as §1, §2

[3] = target: T1, DDR1; assay: DDR1 cell based assay (PathHunter U2OS DDR1 assay); parameters: host or cells: U2OS-DDR1 (PathHunter); details: U2OS-DDR1 cells, bovine Type II Collagen 20 μg/ml
Method: The inhibition of DDR1 receptor activation by compounds was evaluated by PathHunter® U2OS DDR1 assay (Eurofins DiscoverX), according to the manufacturer's instructions. Briefly, U2OS-DDR1 cells were seeded in white 384-well plates at a density of 5000 cells/well and incubated for 2 hours at 37° C. and 5% CO2. Cells were then treated with compounds at different concentrations and incubated for 30 minutes, before stimulation with bovine Type II Collagen 20 μg/ml and incubation overnight at 37° C. and 5% CO2. PathHunter Detection Reagents were prepared according to the protocol provided by DiscoverX and 20 μl/well of this mix were added to each well. After incubating the plates for 1 hour at room temperature in the dark, luminescence signal was acquired with a plate reader. Raw data were normalized to vehicle control (0% for normalization) and positive control (100% for normalization; cells treated with 20 μg/ml collagen II) and IC50 parameters were calculated in GraphPad Prism 8.0 software, using sigmoidal dose-response curve fitting with variable slope.

[4] = binding assay, 5 nM DDR1, 20 nM Kinase Tracer 178, Ki from IC50 by Cheng-Prusoff, read-out: Ki DDR1
[5] = binding assay, 5 nM DDR2, 10 nM Kinase Tracer 178, Ki from IC50 by Cheng-Prusoff, read-out: Ki DDR2
[6] = 5 nM DDR1, 20 nM Kinase Tracer 178, 1 hour at room temperature, IC50 converted in Ki using the Cheng-Prusoff equation, read-out: DDR1 Ki
[7] = 5 nM DDR2, 10 nM Kinase Tracer 178, 1 hour at room temperature, IC50 converted in Ki using the Cheng-Prusoff equation, read-out: DDR2 Ki

T1 sequence (Q08345 19-913): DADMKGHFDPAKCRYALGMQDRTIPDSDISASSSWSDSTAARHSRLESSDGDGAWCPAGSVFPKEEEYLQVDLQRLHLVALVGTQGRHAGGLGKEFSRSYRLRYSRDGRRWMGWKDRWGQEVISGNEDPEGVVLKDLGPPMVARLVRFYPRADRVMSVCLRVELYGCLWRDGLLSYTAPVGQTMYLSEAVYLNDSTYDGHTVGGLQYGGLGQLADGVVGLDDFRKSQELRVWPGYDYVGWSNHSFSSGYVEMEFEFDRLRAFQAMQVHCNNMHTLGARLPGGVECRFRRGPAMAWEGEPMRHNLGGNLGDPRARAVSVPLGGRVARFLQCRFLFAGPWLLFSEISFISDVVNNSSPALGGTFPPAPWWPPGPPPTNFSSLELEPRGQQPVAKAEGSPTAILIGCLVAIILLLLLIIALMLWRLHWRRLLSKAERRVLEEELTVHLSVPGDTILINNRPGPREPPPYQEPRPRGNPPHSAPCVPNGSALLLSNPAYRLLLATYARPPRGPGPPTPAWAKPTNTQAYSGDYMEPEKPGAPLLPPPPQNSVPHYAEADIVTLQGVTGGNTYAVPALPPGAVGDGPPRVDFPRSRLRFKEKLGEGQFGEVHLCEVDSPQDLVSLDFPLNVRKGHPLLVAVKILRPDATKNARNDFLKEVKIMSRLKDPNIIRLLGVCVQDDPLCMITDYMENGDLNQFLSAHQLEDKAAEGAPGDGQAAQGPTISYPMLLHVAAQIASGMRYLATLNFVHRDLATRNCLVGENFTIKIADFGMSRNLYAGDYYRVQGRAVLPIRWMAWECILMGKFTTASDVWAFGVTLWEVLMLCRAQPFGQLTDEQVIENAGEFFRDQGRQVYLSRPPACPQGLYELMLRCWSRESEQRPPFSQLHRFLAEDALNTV

SMILES	pKi [1, 4]	pKi [2, 5]	pIC50 [3]	pKi [1, 6]	pKi [2, 7]
Cn1nc(C(C)(C)C)cc1NC(=O)c1csc2c1CCN(C(=O)c1cnc3ccc(Cl)cn13)C2 [Example 83, N-(3-(tert-butyl)-1-methyl-1H-pyrazol-5-yl)-6-(6-chloroimidazo[1,2-a]pyridine-3-carbonyl)-4,5,6,7-tetrahydrothieno[2,3-c]pyridine-3-carboxamide]	> 7.60	> 7.60	7.30 to 7.60	–	–
CN(C)[C@H]1CCN(Cc2cc(NC(=O)c3csc4c3CCN(C(=O)c3cnc5ccccn35)C4)cc(C(F)(F)F)c2)C1 [Example 44, (S)-N-(3-((3-(dimethylamino)pyrrolidin-1-yl)methyl)-5-(trifluoromethyl)phenyl)-6-(imidazo[1,2-a]pyridine-3-carbonyl)-4,5,6,7-tetrahydrothieno[2,3-c]pyridine-3-carboxamide]	> 7.60	> 7.60	7.30 to 7.60	–	–
CN1CCN(c2n[nH]c3ncc(CN4CCc5c(C(=O)Nc6cncc(C(F)(F)F)c6)csc5C4)cc23)CC1 [Example 149, 6-((3-(4-methylpiperazin-1-yl)-1H-pyrazolo[3,4-b]pyridin-5-yl)methyl)-N-(5-(trifluoromethyl)pyridin-3-yl)-4,5,6,7-tetrahydrothieno[2,3-c]pyridine-3-carboxamide]	> 7.60	> 7.60	7.30 to 7.60	–	–
O=C(Nc1cccc(C(F)(F)F)c1)c1csc2c1CCN(C(=O)c1cnc3[nH]ncc3c1)C2 [Example 91, 6-(1H-pyrazolo[3,4-b]pyridine-5-carbonyl)-N-(3-(trifluoromethyl)phenyl)-4,5,6,7-tetrahydrothieno[2,3-c]pyridine-3-carboxamide]	> 7.60	> 7.60	> 7.60	–	–
O=C(Nc1ccc(Cl)c(C(F)(F)F)c1)c1csc2c1CCN(C(=O)c1cnn3ccncc13)C2 [Example 176, N-(4-chloro-3-(trifluoromethyl)phenyl)-6-(pyrazolo[1,5-a]pyrazine-3-carbonyl)-4,5,6,7-tetrahydrothieno[2,3-c]pyridine-3-carboxamide]	> 7.60	> 7.60	7.10 to 7.30	–	–
CN1CCC(Oc2cc(NC(=O)c3csc4c3CCN(C(=O)c3cnc5ccccn35)C4)cc(C(F)(F)F)c2)C1 (stereo not shown) [Example 63, 6-(imidazo[1,2-a]pyridine-3-carbonyl)-N-[3-(1-methylpyrrolidin-3-yl)oxy-5-(trifluoromethyl)phenyl]-5,7-dihydro-4H-thieno[2,3-c]pyridine-3-carboxamide]	> 7.60	> 7.60	7.10 to 7.30	–	–
CC(C)n1nc(C(C)(C)C)cc1NC(=O)c1csc2c1CCN(C(=O)c1cnc3ccccn13)C2 [Example 38, N-(3-(tert-butyl)-1-isopropyl-1H-pyrazol-5-yl)-6-(imidazo[1,2-a]pyridine-3-carbonyl)-4,5,6,7-tetrahydrothieno[2,3-c]pyridine-3-carboxamide]	> 7.60	> 7.60	7.30 to 7.60	–	–
Cc1n[nH]c2ncc(CN3CCc4c(C(=O)Nc5cc(CN6CC[C@@H](N(C)C)C6)cc(C(F)(F)F)c5)csc4C3)cc12 [Example 157, (R)—N-(3-((3-(dimethylamino)pyrrolidin-1-yl)methyl)-5-(trifluoromethyl)phenyl)-6-((3-methyl-1H-pyrazolo[3,4-b]pyridin-5-yl)methyl)-4,5,6,7-tetrahydrothieno[2,3-c]pyridine-3-carboxamide]	> 7.60	7.30 to 7.60	7.30 to 7.60	–	–
CN1CCN(Cc2cc(NC(=O)c3cc4c(s3)CCN(C(=O)c3cnc5ccccn35)C4)cc(C(F)(F)F)c2)CC1 [Example C2, 5-(imidazo[1,2-a]pyridine-3-carbonyl)-N-(3-((4-methylpiperazin-1-yl)methyl)-5-(trifluoromethyl)phenyl)-4,5,6,7-tetrahydrothieno[3,2-c]pyridine-2-carboxamide]	–	–	–	6.71	6.80

Continued, values first:

pKi [1, 4]	pKi [2, 5]	pIC50 [3]	pKi [1, 6]	pKi [2, 7]	SMILES
> 7.60	> 7.60	7.10 to 7.30	–	–	Cn1nc(C(C)(C)C)cc1NC(=O)c1csc2c1CCN(C(=O)c1cnc3ccc(F)cn13)C2 [Example 81, N-(3-(tert-butyl)-1-methyl-1H-pyrazol-5-yl)-6-(6-fluoroimidazo[1,2-a]pyridine-3-carbonyl)-4,5,6,7-tetrahydrothieno[2,3-c]pyridine-3-carboxamide]
> 7.60	> 7.60	> 7.60	–	–	Cc1n[nH]c2ncc(CN3CCc4c(C(=O)Nc5cc(C(C)(C)C)no5)csc4C3)cc12 [Example 147, N-(3-(tert-butyl)isoxazol-5-yl)-6-((3-methyl-1H-pyrazolo[3,4-b]pyridin-5-yl)methyl)-4,5,6,7-tetrahydrothieno[2,3-c]pyridine-3-carboxamide]
> 7.60	> 7.60	> 7.60	–	–	O=C(Nc1cncc(OC(F)(F)F)c1)c1csc2c1CCN(C(=O)c1cnn3ccncc13)C2 [Example 128, 6-(pyrazolo[1,5-a]pyrazine-3-carbonyl)-N-(5-(trifluoromethoxy)pyridin-3-yl)-4,5,6,7-tetrahydrothieno[2,3-c]pyridine-3-carboxamide]
> 7.60	> 7.60	7.30 to 7.60	–	–	O=C(Nc1ccc(CO)c(C(F)(F)F)c1)c1csc2c1CCN(C(=O)c1cnn3ccncc13)C2 [Example 180, N-(4-(hydroxymethyl)-3-(trifluoromethyl)phenyl)-6-(pyrazolo[1,5-a]pyrazine-3-carbonyl)-4,5,6,7-tetrahydrothieno[2,3-c]pyridine-3-carboxamide]
> 7.60	> 7.60	7.10 to 7.30	–	–	COc1ccn2c(C(=O)N3CCc4c(C(=O)Nc5cncc(C(F)(F)F)c5)csc4C3)cnc2c1 [Example 142, 6-(7-methoxyimidazo[1,2-a]pyridine-3-carbonyl)-N-(5-(trifluoromethyl)pyridin-3-yl)-4,5,6,7-tetrahydrothieno[2,3-c]pyridine-3-carboxamide]
> 7.60	> 7.60	> 7.60	–	–	COCCOc1ccn2c(C(=O)N3CCc4c(C(=O)Nc5cccc(C(F)(F)F)c5)csc4C3)cnc2c1 [Example 138, 6-(7-(2-methoxyethoxy)imidazo[1,2-a]pyridine-3-carbonyl)-N-(3-(trifluoromethyl)phenyl)-4,5,6,7-tetrahydrothieno[2,3-c]pyridine-3-carboxamide]
> 7.60	> 7.60	> 7.60	–	–	CN(C)Cc1cc(NC(=O)c2csc3c2CCN(C(=O)c2cnc4ccccn24)C3)cc(C(F)(F)F)c1 [Example 19, N-(3-((dimethylamino)methyl)-5-(trifluoromethyl)phenyl)-6-(imidazo[1,2-a]pyridine-3-carbonyl)-4,5,6,7-tetrahydrothieno[2,3-c]pyridine-3-carboxamide]
–	–	–	6.51	6.27	CN1CCN(Cc2cc(NC(=O)c3cc4c(s3)CN(C(=O)c3cnc5ccccn35)CC4)cc(C(F)(F)F)c2)CC1 [Example C1, 6-(imidazo[1,2-a]pyridine-3-carbonyl)-N-(3-((4-methylpiperazin-1-yl)methyl)-5-(trifluoromethyl)phenyl)-4,5,6,7-tetrahydrothieno[2,3-c]pyridine-2-carboxamide]
